Patent US20170334899A1, “AMINO-SUBSTITUTED ISOTHIAZOLES” (Bayer Pharma Aktiengesellschaft, priority 2014, published 2017)

Experiments:
[1] = test system: human cervical tumor cell line HeLa (ATCC CCL-2); assay: SAC-Formation - Paclitaxel-Induced Assay; type: cell-based; conditions: 24 h, HeLa cells, paclitaxel 0.05 μM, test range 0.005 μM-20 μM, read-out: IC50 [mol/l] SAC-Formation - Paclitaxel-Induced Assay
Summary of the method: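 Read-out is high-content imaging of anti-phospho-H3 Ser10 (mitosis) and Hoechst 33342 (DNA, cell number), with decreased mitotic fraction marking checkpoint breakthrough. Compounds (0.005–20 μM) and 0.05 μM paclitaxel co-added to overnight-plated HeLa for 24 h at 37° C; four-parameter Hill fit.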

[2] = test system: human cervical tumor cell line HeLa (ATCC CCL-2); assay: SAC-Formation - Nocodazole-Induced Assay; type: cell-based; conditions: Homo sapiens, HeLa, 24 h, HeLa cells, nocodazole 0.1 μg/ml together with test compound, decrease of mitotic cells (phospho-histone H3 Ser10)
Summary of the method: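 Loss of phospho-histone H3 Ser10-positive cells, counted against Hoechst-stained nuclei by high-content imaging, marked mitotic breakthrough. Compounds (0.005–20 μM, 0.5% DMSO) were co-dosed with 0.1 μg/ml nocodazole onto HeLa cells for 24 h at 37 °C. Curves were fitted with a four-parameter Hill equation.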

Structure (SMILES)	IC50 ([1]; Homo sapiens, HeLa) [nM]	IC50 [2] [nM]	IC50 [1] [nM]
Cc1nsc(Nc2cnc3ccccc3n2)c1C(=O)Nc1cccc(C(=O)NCC(=O)OC(C)(C)C)c1 [Example 54, tert-Butyl N-[3-({[3-methyl-5-(quinoxalin-2-ylamino)-1,2-thiazol-4-yl]carbonyl}amino)-benzoyl]glycinate]	1300	990	–
Cc1nsc(Nc2cnc3ccccc3n2)c1C(=O)Nc1cccc(C(=O)N2CCN(C(=O)OC(C)(C)C)CC2)c1 [Example 55, tert-Butyl 4-[3-({[3-methyl-5-(quinoxalin-2-ylamino)-1,2-thiazol-4-yl]carbonyl}amino)-benzoyl]piperazine-1-carboxylate]	3100	930	–
Cc1nsc(Nc2cnc3ccccc3n2)c1C(=O)Nc1cccc(C(=O)N[C@@H](CCC(N)=O)C(=O)OC(C)(C)C)c1 [Example 56, tert-butyl N^2-[3-({[3-methyl-5-(quinoxalin-2-ylamino)-1,2-thiazol-4-yl]carbonyl}amino)-benzoyl]glutaminate]	4300	1200	–
Cc1nsc(Nc2cnc3ccccc3n2)c1C(=O)Nc1cccc(C(=O)N[C@H](C(=O)OC(C)(C)C)[C@@H](C)OC(C)(C)C)c1 [Example 57, tert-Butyl O-tert-butyl-N-[3-({[3-methyl-5-(quinoxalin-2-ylamino)-1,2-thiazol-4 yl]carbonyl}amino)-benzoyl]threoninate]	1200	340	–
Cc1nsc(Nc2cnc(C(F)(F)F)cn2)c1C(=O)Nc1ccc(F)c(OC[C@H]2CCCN(CC(F)F)C2)c1 [Example 400, N-(3-{[(3S)-1-(2,2-difluoroethyl)piperidin-3-yl]methoxy}-4-fluorophenyl)-3-methyl-5-{[5-(trifluoromethyl)pyrazin-2-yl]amino}-1,2-thiazole-4-carboxamide]	59	81	–
Cc1nsc(Nc2cnc(C(F)(F)F)cn2)c1C(=O)Nc1ccc(OCC2CCN(CCC(F)(F)F)CC2(F)F)nc1 (centres unmarked) [Example 402, N-(6-{[3,3-difluoro-1-(3,3,3-trifluoropropyl)piperidin-4-yl]methoxy}pyridin-3-yl)-3-methyl-5-{[5-(trifluoromethyl)pyrazin-2-yl]amino}-1,2-thiazole-4-carboxamide]	3400	1200	–
Cc1nsc(Nc2cnc(C(F)(F)F)cn2)c1C(=O)Nc1ccc(F)c(OC[C@@H]2CCN(CC(F)F)C2)c1 [Example 403, N-(3-{[(3R)-1-(2,2-difluoroethyl)pyrrolidin-3-yl]methoxy}-4-fluorophenyl)-3-methyl-5-{[5-(trifluoromethyl)pyrazin-2-yl]amino}-1,2-thiazole-4-carboxamide]	27	30	42
Cc1nsc(Nc2cnc(C(F)(F)F)cn2)c1C(=O)Nc1ccc(OC[C@H]2CCN(CC(F)(F)F)C2)nc1 [Example 404, 3-Methyl-N-(6-{[(3S)-1-(2,2,2-trifluoroethyl)pyrrolidin-3-yl]methoxy}pyridin-3-yl)-5-{[5-(trifluoromethyl)pyrazin-2-yl]amino}-1,2-thiazole-4-carboxamide]	20	63	–
CCN1CCC(Oc2ccc(NC(=O)c3c(C)nsc3Nc3cnc(C(F)(F)F)cn3)cn2)C(F)(F)C1 (centres unmarked) [Example 406, N-{6-[(1-Ethyl-3,3-difluoropiperidin-4-yl)oxy]pyridin-3-yl}-3-methyl-5-{[5-(trifluoromethyl)pyrazin-2-yl]amino}-1,2-thiazole-4-carboxamide]	49	33	–
Cc1nsc(Nc2cnc(C(F)(F)F)cn2)c1C(=O)Nc1ccc(OCCN2CCC(F)(F)CC2)nc1 [Example 407, N-{6-[2-(4,4-Difluoropiperidin-1-yl)ethoxy]pyridin-3-yl}-3-methyl-5-{[5-(trifluoromethyl)pyrazin-2-yl]amino}-1,2-thiazole-4-carboxamide]	79	39	–
CCCN1C[C@H](F)[C@H](Oc2ccc(NC(=O)c3c(C)nsc3Nc3cnc(C(F)(F)F)cn3)cn2)C1 [Example 408, N-(6-{[(3R,4S)-4-Fluoro-1-propylpyrrolidin-3-yl]oxy}pyridin-3-yl)-3-methyl-5-{[5-(trifluoromethyl)pyrazin-2-yl]amino}-1,2-thiazole-4-carboxamide]	47	3.1	–
Cc1nsc(Nc2cnc(C(F)(F)F)cn2)c1C(=O)Nc1ccc(O[C@@H]2CN(CCC(F)(F)F)C[C@@H]2F)nc1 [Example 409, N-(6-{[(3R,4S)-4-Fluoro-1-(3,3,3-trifluoropropyl)pyrrolidin-3-yl]oxy}pyridin-3-yl)-3-methyl-5-{[5-(trifluoromethyl)pyrazin-2-yl]amino}-1,2-thiazole-4-carboxamide]	39	21	–
Cc1nsc(Nc2cnc(C(F)(F)F)cn2)c1C(=O)Nc1ccc(O[C@@H]2CN(CC(F)(F)F)C[C@@H]2F)nc1 [Example 410, N-(6-{[(3R,4S)-4-Fluoro-1-(2,2,2-trifluoroethyl)pyrrolidin-3-yl]oxy}pyridin-3-yl)-3-methyl-5-{[5-(trifluoromethyl)pyrazin-2-yl]amino}-1,2-thiazole-4-carboxamide]	42	10	–
Cc1nsc(Nc2cnc(C(F)(F)F)cn2)c1C(=O)Nc1ccc(O[C@@H]2CN(CC(F)F)C[C@@H]2F)nc1 [Example 411, N-(6-{[(3R,4S)-1-(2,2-Difluoroethyl)-4-fluoropyrrolidin-3-yl]oxy}pyridin-3-yl)-3-methyl-5-{[5-(trifluoromethyl)pyrazin-2-yl]amino}-1,2-thiazole-4-carboxamide]	39	24	–
Cc1nsc(Nc2cnc(C(F)(F)F)cn2)c1C(=O)Nc1ccc(F)c(O[C@@H]2CCN(CC(F)F)C2)c1 [Example 412, N-(3-{[(3R)-1-(2,2-Difluoroethyl)pyrrolidin-3-yl]oxy}-4-fluorophenyl)-3-methyl-5-{[5-(trifluoromethyl)pyrazin-2-yl]amino}-1,2-thiazole-4-carboxamide]	11	13	–
Cc1nsc(Nc2cnc(C(F)(F)F)cn2)c1C(=O)Nc1ccc(F)c(O[C@@H]2CCN(CC(F)(F)F)C2)c1 [Example 413, N-(4-Fluoro-3-{[(3R)-1-(2,2,2-trifluoroethyl)pyrrolidin-3-yl]oxy}phenyl)-3-methyl-5-{[5-(trifluoromethyl)pyrazin-2-yl]amino}-1,2-thiazole-4-carboxamide]	42	17	–
Cc1nsc(Nc2cnc(C(F)(F)F)cn2)c1C(=O)Nc1ccc(F)c(O[C@@H]2CCN(CCC(F)(F)F)C2)c1 [Example 414, N-(4-Fluoro-3-{[(3R)-1-(3,3,3-trifluoropropyl)pyrrolidin-3-yl]oxy}phenyl)-3-methyl-5-{[5-(trifluoromethyl)pyrazin-2-yl]amino}-1,2-thiazole-4-carboxamide]	44	39	–
Cc1nsc(Nc2cnc(C(F)(F)F)cn2)c1C(=O)Nc1ccc(F)c(O[C@H]2CCN(CCC(F)(F)F)C2)c1 [Example 415, N-(4-Fluoro-3-{[(3S)-1-(3,3,3-trifluoropropyl)pyrrolidin-3-yl]oxy}phenyl)-3-methyl-5-{[5-(trifluoromethyl)pyrazin-2-yl]amino}-1,2-thiazole-4-carboxamide]	53	18	–
Cc1nsc(Nc2cnc(C(F)(F)F)cn2)c1C(=O)Nc1ccc(F)c(O[C@H]2CCN(CC(F)(F)F)C2)c1 [Example 416, N-(4-Fluoro-3-{[(35)-1-(2,2,2-trifluoroethyl)pyrrolidin-3-yl]oxy}phenyl)-3-methyl-5-{[5-(trifluoromethyl)pyrazin-2-yl]amino}-1,2-thiazole-4-carboxamide]	27	4.2	–
Cc1nsc(Nc2cnc(C(F)(F)F)cn2)c1C(=O)Nc1ccc(F)c(O[C@H]2CCN(CC(F)F)C2)c1 [Example 417, N-(3-{[(3S)-1-(2,2-Difluoroethyl)pyrrolidin-3-yl]oxy}-4-fluorophenyl)-3-methyl-5-{[5-(trifluoromethyl)pyrazin-2-yl]amino}-1,2-thiazole-4-carboxamide]	32	9.4	–
Cc1nsc(Nc2cnc(C(F)(F)F)cn2)c1C(=O)Nc1ccc(F)c(OC[C@H]2CCCN(CCC(F)(F)F)C2)c1 [Example 418, N-(4-Fluoro-3-{[(3S)-1-(3,3,3-trifluoropropyl)piperidin-3-yl]methoxy}phenyl)-3-methyl-5-{[5-(trifluoromethyl)pyrazin-2-yl]amino}-1,2-thiazole-4-carboxamide]	140	210	–
Cc1nsc(Nc2cnc(C(F)(F)F)cn2)c1C(=O)Nc1ccc(F)c(OC[C@H]2CCCN(CC(F)(F)F)C2)c1 [Example 419, N-(4-Fluoro-3-{[(3S)-1-(2,2,2-trifluoroethyl)piperidin-3-yl]methoxy}phenyl)-3-methyl-5-{[5-(trifluoromethyl)pyrazin-2-yl]amino}-1,2-thiazole-4-carboxamide]	130	38	–
Cc1nsc(Nc2cnc(C(F)(F)F)cn2)c1C(=O)Nc1ccc(CCC2CCN(CCC(F)(F)F)CC2)nc1 [Example 420, 3-Methyl-5-{[5-(trifluoromethyl)pyrazin-2-yl]amino}-N-(6-{2-[1-(3,3,3-trifluoro-propyl)piperidin-4-yl]ethyl}pyridin-3-yl)-1,2-thiazole-4-carboxamide]	240	120	–
